The source of these data is ChEMBL document CHEMBL3792323, “Piperidine derivatives as nonprostanoid IP receptor agonists” (Bioorg Med Chem Lett, 2016).

Data set [1] in a line: Cmax in fasted dog at 2.5 mg/kg, po. In kind it is ADME, organism-based, Canis lupus familiaris. Set-up: dose 2.5 mg/kg, route oral. Conditions: in vivo.
Data set [2] is described as follows: Oral bioavailability in fasted dog at 2.5 mg/kg. In kind it is ADME, organism-based, Canis lupus familiaris. To be noted: in vivo.
In data set [3] the target is Prostacyclin receptor (Homo sapiens, UniProt P43119). Description: Binding affinity to human IP receptor by competitive binding assay.
Data set [4] deals with T1, Prostaglandin E2 receptor EP1 subtype (Homo sapiens, UniProt P34995).
T1 sequence (P34995 whole entry): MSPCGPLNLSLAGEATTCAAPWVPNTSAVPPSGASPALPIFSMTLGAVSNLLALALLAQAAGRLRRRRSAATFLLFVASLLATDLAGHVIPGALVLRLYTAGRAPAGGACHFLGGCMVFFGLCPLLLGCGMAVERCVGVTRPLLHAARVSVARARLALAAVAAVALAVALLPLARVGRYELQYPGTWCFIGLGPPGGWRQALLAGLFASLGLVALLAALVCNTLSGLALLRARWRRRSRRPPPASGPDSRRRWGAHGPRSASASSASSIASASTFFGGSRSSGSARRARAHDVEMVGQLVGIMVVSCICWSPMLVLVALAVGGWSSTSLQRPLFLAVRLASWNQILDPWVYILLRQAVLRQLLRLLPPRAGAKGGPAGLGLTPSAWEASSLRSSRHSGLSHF
Description: Binding affinity to human EP1 receptor by competitive binding assay.

In data set [5] the target is Prostaglandin E2 receptor EP2 subtype (Homo sapiens, UniProt P43116). Description: Binding affinity to human EP2 receptor by competitive binding assay.
For data set [6], the target named is T2, Prostaglandin E2 receptor EP3 subtype (Homo sapiens, UniProt P43115).
T2 sequence (P43115 whole entry): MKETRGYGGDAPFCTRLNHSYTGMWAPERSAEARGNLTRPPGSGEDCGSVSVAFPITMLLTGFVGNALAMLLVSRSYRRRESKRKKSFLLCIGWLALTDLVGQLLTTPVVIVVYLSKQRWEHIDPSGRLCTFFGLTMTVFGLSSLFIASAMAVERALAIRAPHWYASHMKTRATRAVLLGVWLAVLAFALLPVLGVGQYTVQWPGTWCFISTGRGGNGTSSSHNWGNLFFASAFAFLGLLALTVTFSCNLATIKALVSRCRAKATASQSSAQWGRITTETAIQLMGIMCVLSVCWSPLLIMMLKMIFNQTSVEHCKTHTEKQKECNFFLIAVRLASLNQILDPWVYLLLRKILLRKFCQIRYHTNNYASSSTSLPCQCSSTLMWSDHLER
As to the kind of experiment: Binding affinity to human EP3 receptor by competitive binding assay.

The target in data set [7] is Prostaglandin E2 receptor EP4 subtype (Homo sapiens, UniProt P35408). As to the kind of experiment: Binding affinity to human EP4 receptor by competitive binding assay.
Data set [8] concerns the target Prostaglandin F2-alpha receptor (Homo sapiens, UniProt P43088). Description: Binding affinity to human FP receptor by competitive binding assay.
Data set [9] concerns the target T3, Thromboxane A2 receptor (Homo sapiens, UniProt P21731).
T3 sequence (P21731 whole entry): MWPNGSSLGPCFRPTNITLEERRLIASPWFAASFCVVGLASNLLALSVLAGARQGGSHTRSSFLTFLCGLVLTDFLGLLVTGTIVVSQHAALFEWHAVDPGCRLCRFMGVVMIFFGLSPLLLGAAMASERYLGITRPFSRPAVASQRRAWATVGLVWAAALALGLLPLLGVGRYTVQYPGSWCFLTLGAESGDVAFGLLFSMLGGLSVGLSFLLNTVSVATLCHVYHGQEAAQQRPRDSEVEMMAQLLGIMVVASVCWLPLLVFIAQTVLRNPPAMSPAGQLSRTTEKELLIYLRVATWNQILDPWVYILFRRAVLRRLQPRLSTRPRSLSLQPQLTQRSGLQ
As to the kind of experiment: Binding affinity to human TP receptor by competitive binding assay.

Sequence of Prostaglandin F2-alpha receptor (P43088 whole entry): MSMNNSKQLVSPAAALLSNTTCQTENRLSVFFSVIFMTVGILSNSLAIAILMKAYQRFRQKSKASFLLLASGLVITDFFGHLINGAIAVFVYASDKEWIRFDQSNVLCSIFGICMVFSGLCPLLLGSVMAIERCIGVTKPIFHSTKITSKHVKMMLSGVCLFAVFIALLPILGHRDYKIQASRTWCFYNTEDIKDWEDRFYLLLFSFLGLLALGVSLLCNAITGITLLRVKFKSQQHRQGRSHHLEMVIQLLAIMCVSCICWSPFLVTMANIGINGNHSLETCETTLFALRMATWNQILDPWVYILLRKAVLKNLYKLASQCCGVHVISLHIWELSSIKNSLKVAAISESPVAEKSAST
Sequence of Prostacyclin receptor (P43119 whole entry): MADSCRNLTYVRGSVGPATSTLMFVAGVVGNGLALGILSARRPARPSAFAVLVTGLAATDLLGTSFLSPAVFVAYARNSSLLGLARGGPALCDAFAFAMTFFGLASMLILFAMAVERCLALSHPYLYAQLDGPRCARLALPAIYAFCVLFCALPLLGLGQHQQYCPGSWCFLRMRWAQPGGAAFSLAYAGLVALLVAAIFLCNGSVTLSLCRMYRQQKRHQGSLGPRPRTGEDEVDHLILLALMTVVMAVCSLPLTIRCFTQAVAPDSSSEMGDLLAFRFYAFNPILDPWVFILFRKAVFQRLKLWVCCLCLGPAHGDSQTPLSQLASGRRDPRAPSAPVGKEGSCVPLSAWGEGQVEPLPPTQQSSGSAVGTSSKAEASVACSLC
Sequence of Prostaglandin E2 receptor EP4 subtype (P35408 whole entry): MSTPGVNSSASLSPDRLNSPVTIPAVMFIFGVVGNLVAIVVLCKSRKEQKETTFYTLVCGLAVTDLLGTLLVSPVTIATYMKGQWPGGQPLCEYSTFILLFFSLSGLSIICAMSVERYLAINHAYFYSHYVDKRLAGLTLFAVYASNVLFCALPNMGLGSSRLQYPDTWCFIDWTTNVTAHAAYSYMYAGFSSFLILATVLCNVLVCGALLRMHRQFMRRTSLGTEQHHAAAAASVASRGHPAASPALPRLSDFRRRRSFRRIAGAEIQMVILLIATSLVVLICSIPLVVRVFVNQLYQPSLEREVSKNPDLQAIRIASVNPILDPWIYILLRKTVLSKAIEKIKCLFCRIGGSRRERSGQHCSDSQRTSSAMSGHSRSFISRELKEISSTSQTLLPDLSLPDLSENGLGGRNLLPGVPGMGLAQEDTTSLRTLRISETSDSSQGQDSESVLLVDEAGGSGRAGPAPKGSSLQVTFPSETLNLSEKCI
Sequence of Prostaglandin E2 receptor EP2 subtype (P43116 whole entry): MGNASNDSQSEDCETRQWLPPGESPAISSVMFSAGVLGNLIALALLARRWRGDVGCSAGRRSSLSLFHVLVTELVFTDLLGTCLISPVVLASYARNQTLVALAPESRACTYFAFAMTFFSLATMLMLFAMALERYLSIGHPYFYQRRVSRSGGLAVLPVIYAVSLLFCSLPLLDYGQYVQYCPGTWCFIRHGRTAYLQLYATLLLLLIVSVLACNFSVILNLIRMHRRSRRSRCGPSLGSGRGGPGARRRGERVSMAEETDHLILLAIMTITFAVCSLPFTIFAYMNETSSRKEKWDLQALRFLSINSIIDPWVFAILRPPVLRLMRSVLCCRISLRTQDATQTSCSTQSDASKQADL

Usually Cmax stands for the peak of the concentration-time curve. For orientation: bioavailability means the share of a dose that reaches the circulation, judged against a reference dose that is usually intravenous. Low values mean little systemic uptake, high ones much systemic uptake. With `O=C(O)COc1cccc2c1OCCN2CCN(C(=O)c1ccccn1)c1ccc(Cl)cc1`, the highest concentration (Cmax) in [1] was found to be 138 ng/mL. In addition, the bioavailability in data set [2] amounted to 13%.

One may read the Ki as a dissociation constant, usually derived from enzyme kinetics or from competition with a known ligand. Low readings indicate tighter binding, high ones weaker binding. In the case of `Cc1ccc(N(CCN2CCC(OCC(=O)O)CC2)C(=O)c2ccccc2)cc1`, the Ki was 0.99 µM in data set [3]; over 50 µM in data set [4]; over 50 µM in data set [5]; over 50 µM in [6]; over 50 µM in data set [7]; over 50 µM in data set [8]. In [9], this compound registered a Ki of over 50 µM. Besides, the highest level in data set [1] (Cmax) was 1610 ng/mL. Moreover, in [2], the bioavailability stood at 77%.
